From patent publication US8063218B2, “Imidazopyridine inhibitors of IAP” (Genentech, Inc., priority 2006, dated 2011)
pKi: −log10 of the molar value.

target: T1, MLXBIR3SG (Homo sapiens, UniProt Q96CA5, S150G); experiment: Fluorescence Polarization Peptide Binding Assay (competition with AVP-diPhe-FAM probe); conditions: competition: MLXBIR3SG at 30 nM, 5 nM AVP-diPhe-FAM probe; Ki determined from the IC50 values
T1 sequence (Q96CA5 with tags, fused parts or gaps S150G limits assumed): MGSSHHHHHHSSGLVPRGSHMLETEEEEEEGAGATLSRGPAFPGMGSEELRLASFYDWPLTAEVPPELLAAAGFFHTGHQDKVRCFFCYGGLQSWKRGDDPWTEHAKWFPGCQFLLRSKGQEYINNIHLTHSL
Method: In the following experiments was used a chimeric BIR domain referred to as MLXBIR3SG in which 11 of 110 residues correspond to those found in XIAP-BIR3, while the remainder correspond to ML-IAP-BIR. […] The improved caspase-9 inhibition of the chimeric BIR domain MLXBIR3SG has been correlated with increased inhibition of doxorubicin-induced apoptosis when transfected into MCF7 cells. MLXBIR3SG sequence:
Fluorescence Polarization Peptide Binding Assay
Polarization experiments were performed on an Analyst HT 96-384 (Molecular Devices Corp.) according to the procedure of Keating, S. M., Marsters, J, Beresini, M., Ladner, C., Zioncheck, K., Clark, K., Arellano, F., and Bodary., S. (2000) in Proceedings of SPIE: In Vitro Diagnostic Instrumentation (Cohn, G. E., Ed.) pp 128-137, Bellingham, Wash. Samples for fluorescence polarization affinity measurements were prepared by addition of 1:2 serial dilutions starting at a final concentration of 5 μM of MLXBIR3SG in polarization buffer (50 mM Tris [pH 7.2], 120 mM NaCl, 1% bovine globulins 5 mM DTT and 0.05% octylglucoside) to 5-carboxyflourescein-conjugated AVPdi-Phe-NH2 (AVP-diPhe-FAM) at 5 nM final concentration.
The reactions were read after an incubation time of 10 minutes at room temperature with standard cut-off filters for the fluorescein fluorophore (λex=485 nm; λem=530 nm) in 96-well black HE96 plates (Molecular Devices Corp.). Fluorescence values were plotted as a function of the protein concentration, and the IC50s were obtained by fitting the data to a 4-parameter equation using Kaleidograph software (Synergy software, Reading, Pa.). Competition experiments were performed by addition of the MLXBIR3SG at 30 nM to wells containing 5 nM of the AVP-diPhe-FAM probe as well as 1:3 serial dilutions of antagonist compounds starting at a concentration of 300 μM in the polarization buffer. Samples were read after a 10-minute incubation. Fluorescence polarization values were plotted as a function of the antagonist concentration, and the IC50 values were obtained by fitting the data to a 4-parameter equation using Kaleidograph software (Synergy software, Reading, Pa.). Inhibition constants (Ki) for the antagonists were determined from the IC50 values.

| Compound | pKi |
| --- | --- |
| CN[C@@H](C)C(=O)N[C@H](C(=O)N1CCC[C@H]1c1cn2c(-c3ccccc3)cccc2n1)C1CCOCC1 [Compound 1] | 7.05 |
| CN[C@@H](C)C(=O)N[C@H](C(=O)N1CCC[C@H]1c1cn2cccc(-c3ccc(N(C)C)cc3)c2n1)C1CCOCC1 [Compound 7] | 4.72 |
| CN[C@@H](C)C(=O)N[C@H](C(=O)N1CCC[C@H]1c1cn2cccc(-c3ccc([N+](=O)[O-])cc3)c2n1)C1CCOCC1 [Compound 8] | 5.64 |
| CN[C@@H](C)C(=O)N[C@H](C(=O)N1CCC[C@H]1c1cn2cccc(-c3cccc4ccccc34)c2n1)C1CCOCC1 [Compound 20] | 5.74 |
